Source: ChEMBL document CHEMBL5154935, “Design, Synthesis, and Biological Evaluation of Novel Evodiamine Derivatives as Potential Antihepatocellular Carcinoma Agents” (J Med Chem, 2022)

Columns and labels:
SK-HEP1 = experiment: Antiproliferative activity against human SK-Hep1 cells assessed as inhibition of cell viability at less than 0.227 uM treated for 24 hrs by MTT assay; type: functional
[1] = Cmax in Sprague-Dawley rat at 80 mg/kg, ip measured upto 24 hrs by LC-MS analysis; type: ADME, organism-based; design: dose 80 mg/kg, time < 24 hrs, route ip; details: in vivo
[2] = Tmax in Sprague-Dawley rat at 80 mg/kg, ip measured upto 24 hrs by LC-MS analysis; type: ADME, organism-based; details: in vivo
[3] = Acute toxicity in Kunming mouse assessed as animal survival at 400 mg/kg, ip measured for 14 consecutive days; type: organism-based; details: in vivo, 336 h, time 14 day
Huh-7 [4] = experiment: Antitumor activity against human Huh-7 cells xenografted in BALB/c mouse assessed as tumor growth inhibition at 10 mg/kg, ip qd for 11 days and measured every 2 days relative to control; type: functional; details: Huh-7, 264 h, time 11 day, read-out: TGI
Huh-7 [5] = experiment: Antiproliferative activity against human Huh-7 cells assessed as inhibition of cell viability at less than 0.021 uM treated for 24 hrs by MTT assay; type: functional

Row | Structure (SMILES) | Activity (SK-HEP1) [%] | Cmax [1] [ng/mL] | Tmax [2] [h] | Activity [3] | inhibition in vivo at 10 mg/kg (Huh-7 [4]) [%] | Activity (Huh-7 [5]) [%]
1 | CC(=O)Oc1ccc2[nH]c3c(c2c1)CCN1C(=O)c2cc(F)cc(F)c2N(c2cccc(F)c2)C31 (stereo unspecified) | >80 | 350 | 3 | Non-Toxic | 60.4 | –
2 | O=C1c2cc(F)cc(F)c2N(c2cccc(F)c2)C2c3[nH]c4ccc(O)cc4c3CCN12 (stereo unspecified) | – | – | – | – | – | >80
